# Source: the kinase profiling compilation of Christmann-Franck et al. (2016)
# How the values were obtained:
# Experiment in all cases: KINOMEscan competition binding
# CAMK1G (human) = CAMK1G (human) (UniProt Q96NX5); conditions: compound 10.0 µM
# BMPR1B (human) = BMPR1B (human) (UniProt O00238); conditions: compound 10.0 µM
# [1] = system: EGFR (human), P00533 [L858R]; conditions: compound 10.0 µM
# ACVR2A (human) = ACVR2A (human) (UniProt P27037); conditions: compound 10.0 µM
# [2] = system: EGFR (human), P00533 [752-759 del]; conditions: compound 10.0 µM
# STK25 (human) = STK25 (human) (UniProt O00506); conditions: compound 10.0 µM
# GRK7 (human) = GRK7 (human) (UniProt Q8WTQ7); conditions: compound 10.0 µM
# CRK2 (P.falciparum) = CRK2 (P.falciparum) (UniProt P61075); conditions: compound 10.0 µM
# CRK2 (P.falciparum), sequence (P61075 whole entry, looked up): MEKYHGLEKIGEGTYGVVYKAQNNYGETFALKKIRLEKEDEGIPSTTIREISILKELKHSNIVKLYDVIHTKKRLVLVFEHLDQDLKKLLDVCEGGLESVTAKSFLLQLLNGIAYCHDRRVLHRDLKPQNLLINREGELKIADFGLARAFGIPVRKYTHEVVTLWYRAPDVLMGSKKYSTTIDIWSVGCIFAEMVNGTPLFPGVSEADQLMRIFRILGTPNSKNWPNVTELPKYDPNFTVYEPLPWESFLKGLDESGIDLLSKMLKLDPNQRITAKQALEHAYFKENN
# [3] = target: TYK2 JH2 pseudokinase (human) (UniProt P29597); conditions: compound 10.0 µM
# ERBB3 (human) = ERBB3 (human) (UniProt P21860); conditions: compound 10.0 µM
# DDR2 (human) = DDR2 (human) (UniProt Q16832); conditions: compound 10.0 µM
# CDK2 (human) = CDK2 (human) (UniProt P24941); conditions: compound 10.0 µM
# TGFBR1 (human) = TGFBR1 (human) (UniProt P36897); conditions: compound 10.0 µM
# MAPK14 (human) = MAPK14 (human) (UniProt Q16539); conditions: compound 10.0 µM
# NEK1 (human) = NEK1 (human) (UniProt Q96PY6); conditions: compound 10.0 µM
# LTK (human) = LTK (human) (UniProt P29376); conditions: compound 10.0 µM
# STK3 (human) = STK3 (human) (UniProt Q13188); conditions: compound 10.0 µM
# YSK4 (human) = YSK4 (human) (UniProt Q56UN5); conditions: compound 10.0 µM
# BRSK1 (human) = BRSK1 (human) (UniProt Q8TDC3); conditions: compound 10.0 µM
# RET (human) = RET (human) (UniProt P07949); conditions: compound 10.0 µM
# LRRK2 (human) = LRRK2 (human) (UniProt Q5S007)
# LRRK2 (human), sequence (Q5S007 whole entry, looked up): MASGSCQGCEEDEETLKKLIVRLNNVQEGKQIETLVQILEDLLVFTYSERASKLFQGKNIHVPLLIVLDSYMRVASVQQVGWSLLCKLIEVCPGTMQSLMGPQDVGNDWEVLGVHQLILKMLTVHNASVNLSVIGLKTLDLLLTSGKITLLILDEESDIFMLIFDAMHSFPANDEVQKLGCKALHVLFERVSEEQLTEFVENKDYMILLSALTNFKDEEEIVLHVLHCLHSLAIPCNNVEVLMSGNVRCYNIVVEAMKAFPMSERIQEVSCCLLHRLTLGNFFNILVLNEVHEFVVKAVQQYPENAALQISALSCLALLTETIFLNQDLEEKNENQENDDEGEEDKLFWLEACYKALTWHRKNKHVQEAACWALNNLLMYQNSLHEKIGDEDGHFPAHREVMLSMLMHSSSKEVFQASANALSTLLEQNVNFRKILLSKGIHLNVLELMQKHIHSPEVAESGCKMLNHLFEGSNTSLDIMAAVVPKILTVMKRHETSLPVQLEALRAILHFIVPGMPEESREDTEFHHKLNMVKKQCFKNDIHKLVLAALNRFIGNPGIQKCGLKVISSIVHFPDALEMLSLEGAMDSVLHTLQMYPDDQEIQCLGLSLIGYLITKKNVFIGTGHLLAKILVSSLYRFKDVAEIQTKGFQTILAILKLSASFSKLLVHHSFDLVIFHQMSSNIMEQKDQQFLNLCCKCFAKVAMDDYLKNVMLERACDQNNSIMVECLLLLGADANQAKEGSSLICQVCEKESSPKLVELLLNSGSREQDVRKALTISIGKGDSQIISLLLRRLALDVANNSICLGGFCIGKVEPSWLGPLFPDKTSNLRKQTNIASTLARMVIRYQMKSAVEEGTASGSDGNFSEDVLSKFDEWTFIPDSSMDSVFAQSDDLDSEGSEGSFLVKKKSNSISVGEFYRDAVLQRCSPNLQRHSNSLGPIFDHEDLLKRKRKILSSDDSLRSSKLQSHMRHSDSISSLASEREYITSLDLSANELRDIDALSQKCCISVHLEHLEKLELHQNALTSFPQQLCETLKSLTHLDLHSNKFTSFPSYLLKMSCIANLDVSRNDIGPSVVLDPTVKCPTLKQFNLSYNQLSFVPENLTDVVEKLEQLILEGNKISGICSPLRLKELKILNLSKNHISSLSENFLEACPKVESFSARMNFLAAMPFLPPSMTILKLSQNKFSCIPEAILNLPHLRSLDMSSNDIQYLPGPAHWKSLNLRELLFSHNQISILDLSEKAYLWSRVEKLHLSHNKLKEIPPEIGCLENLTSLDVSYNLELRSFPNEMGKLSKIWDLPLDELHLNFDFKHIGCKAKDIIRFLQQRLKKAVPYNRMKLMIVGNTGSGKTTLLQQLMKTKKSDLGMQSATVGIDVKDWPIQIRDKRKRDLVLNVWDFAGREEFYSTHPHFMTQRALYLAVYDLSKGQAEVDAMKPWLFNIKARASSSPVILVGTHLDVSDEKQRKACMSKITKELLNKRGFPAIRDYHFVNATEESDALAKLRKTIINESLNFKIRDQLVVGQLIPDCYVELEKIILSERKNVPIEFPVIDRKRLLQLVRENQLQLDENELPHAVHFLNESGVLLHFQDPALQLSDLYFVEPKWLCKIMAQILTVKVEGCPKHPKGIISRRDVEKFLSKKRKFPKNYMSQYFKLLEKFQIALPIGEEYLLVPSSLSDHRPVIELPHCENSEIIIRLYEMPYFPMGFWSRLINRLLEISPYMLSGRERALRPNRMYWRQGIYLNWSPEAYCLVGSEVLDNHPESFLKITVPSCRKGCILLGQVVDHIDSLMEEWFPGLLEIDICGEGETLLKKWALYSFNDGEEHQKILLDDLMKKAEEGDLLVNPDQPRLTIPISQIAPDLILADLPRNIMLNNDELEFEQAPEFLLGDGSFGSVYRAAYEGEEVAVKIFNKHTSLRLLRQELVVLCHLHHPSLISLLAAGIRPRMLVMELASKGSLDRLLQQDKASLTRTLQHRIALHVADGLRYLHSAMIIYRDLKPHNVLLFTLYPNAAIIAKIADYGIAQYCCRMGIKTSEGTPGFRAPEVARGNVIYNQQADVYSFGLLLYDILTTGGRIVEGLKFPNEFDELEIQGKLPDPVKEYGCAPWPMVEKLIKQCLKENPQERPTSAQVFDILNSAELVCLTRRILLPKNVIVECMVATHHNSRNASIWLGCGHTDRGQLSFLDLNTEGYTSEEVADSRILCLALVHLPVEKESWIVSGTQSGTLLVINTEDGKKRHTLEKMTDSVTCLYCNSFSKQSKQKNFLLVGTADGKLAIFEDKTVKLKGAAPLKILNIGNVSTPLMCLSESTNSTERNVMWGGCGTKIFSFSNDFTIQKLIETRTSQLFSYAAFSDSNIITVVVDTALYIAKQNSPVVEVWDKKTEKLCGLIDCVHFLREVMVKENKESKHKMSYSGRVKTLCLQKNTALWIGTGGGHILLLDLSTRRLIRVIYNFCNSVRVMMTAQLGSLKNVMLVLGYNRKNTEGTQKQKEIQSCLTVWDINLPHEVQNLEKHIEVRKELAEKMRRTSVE
# [4] = system: EGFR (human), P00533 [746-750 del]; conditions: compound 10.0 µM
# YES1 (human) = YES1 (human) (UniProt P07947); conditions: compound 10.0 µM
# CDK19 (human) = CDK19 (human) (UniProt Q9BWU1); conditions: compound 10.0 µM
# NTRK3 (human) = NTRK3 (human) (UniProt Q16288); conditions: compound 10.0 µM
# NTRK3 (human), sequence (Q16288 whole entry, looked up): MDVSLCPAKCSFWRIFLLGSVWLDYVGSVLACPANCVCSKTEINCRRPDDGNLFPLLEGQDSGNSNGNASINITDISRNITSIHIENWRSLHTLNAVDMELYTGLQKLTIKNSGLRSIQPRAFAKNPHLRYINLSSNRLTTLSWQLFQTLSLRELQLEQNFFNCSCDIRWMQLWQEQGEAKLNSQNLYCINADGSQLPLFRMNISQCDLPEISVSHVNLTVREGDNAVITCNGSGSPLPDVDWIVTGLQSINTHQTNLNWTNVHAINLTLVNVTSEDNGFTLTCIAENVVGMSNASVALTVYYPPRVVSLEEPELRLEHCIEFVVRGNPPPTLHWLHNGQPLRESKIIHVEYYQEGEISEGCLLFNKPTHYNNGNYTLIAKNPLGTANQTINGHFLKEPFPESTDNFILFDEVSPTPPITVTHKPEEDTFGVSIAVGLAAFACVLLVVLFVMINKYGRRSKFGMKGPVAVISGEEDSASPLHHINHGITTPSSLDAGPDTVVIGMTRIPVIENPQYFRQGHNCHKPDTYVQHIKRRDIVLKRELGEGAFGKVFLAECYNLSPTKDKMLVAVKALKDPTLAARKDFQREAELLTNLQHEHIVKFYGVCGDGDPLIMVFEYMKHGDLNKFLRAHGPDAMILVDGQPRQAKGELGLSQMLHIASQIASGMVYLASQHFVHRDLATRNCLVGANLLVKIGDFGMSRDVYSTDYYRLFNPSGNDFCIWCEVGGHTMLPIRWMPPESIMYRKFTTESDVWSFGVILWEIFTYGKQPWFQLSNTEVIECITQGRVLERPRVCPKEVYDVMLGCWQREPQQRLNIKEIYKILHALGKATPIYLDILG
# MINK1 (human) = MINK1 (human) (UniProt Q8N4C8); conditions: compound 10.0 µM
# RIOK1 (human) = RIOK1 (human) (UniProt Q9BRS2); conditions: compound 10.0 µM
# MAPK1 (human) = MAPK1 (human) (UniProt P28482); conditions: compound 10.0 µM
# TLK2 (human) = TLK2 (human) (UniProt Q86UE8); conditions: compound 10.0 µM
# PKN3 (M.tuberculosis) = PKN3 (M.tuberculosis) (UniProt Q6P5Z2); conditions: compound 10.0 µM
# PLK3 (human) = PLK3 (human) (UniProt Q9H4B4); conditions: compound 10.0 µM
# MAPK8 (human) = MAPK8 (human) (UniProt P45983); conditions: compound 10.0 µM
# FGR (human) = FGR (human) (UniProt P09769); conditions: compound 10.0 µM
# [5] = system: EGFR (human), P00533 [T790M/L858R]; conditions: compound 10.0 µM
# NIM1 (human) = NIM1 (human) (UniProt Q8IY84); conditions: compound 10.0 µM
# BMPR1A (human) = BMPR1A (human) (UniProt P36894); conditions: compound 10.0 µM
# CIT (human) = CIT (human) (UniProt O14578); conditions: compound 10.0 µM
# ULK3 (human) = ULK3 (human) (UniProt Q6PHR2); conditions: compound 10.0 µM
# ULK3 (human), sequence (Q6PHR2 whole entry, looked up): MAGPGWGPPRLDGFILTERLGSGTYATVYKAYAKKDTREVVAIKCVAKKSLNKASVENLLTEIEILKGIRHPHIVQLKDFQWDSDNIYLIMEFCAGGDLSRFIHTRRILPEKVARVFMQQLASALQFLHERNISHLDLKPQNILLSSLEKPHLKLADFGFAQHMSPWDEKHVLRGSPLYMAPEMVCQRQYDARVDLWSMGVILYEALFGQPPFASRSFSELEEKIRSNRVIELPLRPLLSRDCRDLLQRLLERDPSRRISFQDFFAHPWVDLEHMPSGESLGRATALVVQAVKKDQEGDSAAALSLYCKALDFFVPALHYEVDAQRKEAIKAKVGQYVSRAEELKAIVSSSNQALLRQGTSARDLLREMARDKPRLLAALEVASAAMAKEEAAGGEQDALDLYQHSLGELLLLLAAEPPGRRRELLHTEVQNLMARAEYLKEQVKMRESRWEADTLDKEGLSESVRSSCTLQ
# AURKA (human) = AURKA (human) (UniProt O14965)
# AURKA (human), sequence (O14965 whole entry, looked up): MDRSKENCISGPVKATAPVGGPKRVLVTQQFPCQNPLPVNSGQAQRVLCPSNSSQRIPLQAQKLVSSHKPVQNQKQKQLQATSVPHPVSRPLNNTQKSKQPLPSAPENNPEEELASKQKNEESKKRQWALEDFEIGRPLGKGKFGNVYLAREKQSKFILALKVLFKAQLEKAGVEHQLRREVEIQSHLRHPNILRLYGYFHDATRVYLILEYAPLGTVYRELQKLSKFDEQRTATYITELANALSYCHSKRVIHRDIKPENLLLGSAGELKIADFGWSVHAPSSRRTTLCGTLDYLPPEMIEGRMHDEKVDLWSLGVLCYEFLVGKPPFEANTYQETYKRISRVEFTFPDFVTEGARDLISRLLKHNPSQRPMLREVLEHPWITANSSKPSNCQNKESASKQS
# DMPK (human) = DMPK (human) (UniProt Q09013); conditions: compound 10.0 µM
# CDK15 (human) = CDK15 (human) (UniProt Q96Q40); conditions: compound 10.0 µM
# CAMK1G (human), sequence (Q96NX5 whole entry, looked up): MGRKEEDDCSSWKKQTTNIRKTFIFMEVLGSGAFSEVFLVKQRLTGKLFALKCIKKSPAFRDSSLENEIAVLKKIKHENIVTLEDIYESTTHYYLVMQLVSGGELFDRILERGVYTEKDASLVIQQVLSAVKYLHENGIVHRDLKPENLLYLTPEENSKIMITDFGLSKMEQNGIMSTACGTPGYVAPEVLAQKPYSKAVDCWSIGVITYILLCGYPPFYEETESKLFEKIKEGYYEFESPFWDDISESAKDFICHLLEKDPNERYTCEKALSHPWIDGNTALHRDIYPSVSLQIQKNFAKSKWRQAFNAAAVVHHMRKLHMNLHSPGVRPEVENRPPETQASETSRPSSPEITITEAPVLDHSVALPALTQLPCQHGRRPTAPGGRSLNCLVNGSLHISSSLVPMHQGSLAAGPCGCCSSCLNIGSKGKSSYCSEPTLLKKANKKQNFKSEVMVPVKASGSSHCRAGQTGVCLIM
smiles,measurement,setting,value
COc1cc(C(=O)N2CCC(N3CCN(C)CC3)CC2)ccc1Nc1ncc2c(n1)N(C)c1ccccc1C(=O)N2C,"kinase still bound, per cent of control",CAMK1G (human),74%
same,"kinase still bound, per cent of control",BMPR1B (human),76%
same,"kinase still bound, per cent of control",[1],79%
same,"kinase still bound, per cent of control",ACVR2A (human),100%
same,"kinase still bound, per cent of control",[2],99%
same,"kinase still bound, per cent of control",STK25 (human),68%
same,"kinase still bound, per cent of control",GRK7 (human),100%
same,"kinase still bound, per cent of control",CRK2 (P.falciparum),100%
same,"kinase still bound, per cent of control",[3],100%
same,"kinase still bound, per cent of control",ERBB3 (human),100%
same,"kinase still bound, per cent of control",DDR2 (human),100%
same,residual activity,CDK2 (human),100%
same,"kinase still bound, per cent of control",TGFBR1 (human),100%
same,"kinase still bound, per cent of control",MAPK14 (human),87%
same,"kinase still bound, per cent of control",NEK1 (human),83%
same,"kinase still bound, per cent of control",LTK (human),32%
same,"kinase still bound, per cent of control",STK3 (human),71%
same,"kinase still bound, per cent of control",YSK4 (human),99%
same,"kinase still bound, per cent of control",BRSK1 (human),81%
same,"kinase still bound, per cent of control",RET (human),100%
same,Kd,LRRK2 (human),20 nM
same,"kinase still bound, per cent of control",LRRK2 (human); compound 10.0 µM,0%
same,"kinase still bound, per cent of control",[4],72%
same,"kinase still bound, per cent of control",YES1 (human),100%
same,residual activity,CDK19 (human),100%
same,"kinase still bound, per cent of control",NTRK3 (human),100%
same,"kinase still bound, per cent of control",MINK1 (human),77%
same,"kinase still bound, per cent of control",RIOK1 (human),100%
same,"kinase still bound, per cent of control",MAPK1 (human),85%
same,"kinase still bound, per cent of control",TLK2 (human),99%
same,"kinase still bound, per cent of control",PKN3 (M.tuberculosis),100%
same,"kinase still bound, per cent of control",PLK3 (human),51%
same,"kinase still bound, per cent of control",MAPK8 (human),95%
same,"kinase still bound, per cent of control",FGR (human),84%
same,"kinase still bound, per cent of control",[5],84%
same,"kinase still bound, per cent of control",NIM1 (human),100%
same,"kinase still bound, per cent of control",BMPR1A (human),100%
same,"kinase still bound, per cent of control",CIT (human),99%
same,"kinase still bound, per cent of control",ULK3 (human),100%
same,Kd,AURKA (human),1600 nM
same,"kinase still bound, per cent of control",AURKA (human); compound 10.0 µM,1.2%
same,"kinase still bound, per cent of control",DMPK (human),100%
same,residual activity,CDK15 (human),100%
